One series concerns the target hERG (Homo sapiens, UniProt Q12809). Description: Patch clamp assay (hERG tail currents, whole-cell). On the technique in general: The patch-clamp technique gives a direct electrical read-out from membranes.
Series [1] deals with T1, human Menin and N-terminal portion of human MLL (amino acids 4-43) (Homo sapiens, UniProt O00255).
T1 construct: H-FL-Menin diluted to 4 nM in assay buffer
T1 sequence (O00255 1-610): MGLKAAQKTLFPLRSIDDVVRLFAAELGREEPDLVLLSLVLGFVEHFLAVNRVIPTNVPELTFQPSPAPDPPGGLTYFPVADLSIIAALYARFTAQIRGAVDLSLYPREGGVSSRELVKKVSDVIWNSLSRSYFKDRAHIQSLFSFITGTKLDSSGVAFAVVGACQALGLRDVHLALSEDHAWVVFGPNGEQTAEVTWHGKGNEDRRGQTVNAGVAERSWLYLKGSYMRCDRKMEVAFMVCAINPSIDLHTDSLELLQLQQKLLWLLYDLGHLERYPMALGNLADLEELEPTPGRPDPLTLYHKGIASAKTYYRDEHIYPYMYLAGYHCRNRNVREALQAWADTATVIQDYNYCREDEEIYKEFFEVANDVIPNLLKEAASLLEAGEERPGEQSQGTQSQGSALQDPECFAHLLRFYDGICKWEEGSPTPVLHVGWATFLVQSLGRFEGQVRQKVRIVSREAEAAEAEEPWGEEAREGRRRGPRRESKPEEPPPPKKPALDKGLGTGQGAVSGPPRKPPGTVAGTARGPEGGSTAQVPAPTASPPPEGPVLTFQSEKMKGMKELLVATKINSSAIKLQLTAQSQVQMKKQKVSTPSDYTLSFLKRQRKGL
The series can be described thus: Menin-MLL competition assay (HTRF). To be noted: 1 hr incubation. It counts as binding. From the text: Menin-MLL is a competition assay between human Menin and N-terminal portion of human MLL representing amino acids 4-43 of the protein. The interaction between Menin and MLL peptide was monitored by HTRF employing Terbium labeled anti-His6 antibody directed to the N-terminal His6-tag on recombinant Menin and FITC group covalently attached to the MLL peptide. The N-terminal fragment of MLL, retained in all MLL fusion proteins, is involved in the interactions with Menin, and this protein-protein interaction is critical for the MLL fusion proteins mediated leukemogenic transformations.
For IC50 determination test compounds were prepared as 10 mM DMSO stock solutions. Considering DMSO as the vehicle in the assay system. Lower sub-stocks of 50 μM were prepared from the 10 mM stock solution. To test the compounds in assay, 3.16-fold serial dilutions are made in 100% DMSO. Mid-stock of 50×compounds (50 μM) were serially diluted (3.16 fold) in 100% DMSO in Polypropylene plate. In assay plate 1 micro-litre of the previously prepared compound dilution was stamped. H-FL-Menin diluted to 4 nM in assay buffer (50 mM Tris-HCl, pH 7.4, 50 mM NaCl, freshly prepared 1 mM DTT, 0.01% BSA, 0.005% Triton X-100) was pre-incubated with 8 nM anti-His6-Tb for 30 min at room temperature. FITC-MLL-4-43 was diluted to 2 nM in assay buffer and 25 μL was dispensed into each well of the assay plate followed by addition of 25 μl of pre-incubated H-FL-Menin and anti-His6-Tb mixture. Final concentration H-FL-Menin diluted to 1 nM in assay plate with 2 nM anti-His6-Tb and 1 nM FITC-MLL-4-43. After 1 hr incubation at room temperature, the HTRF signal was measured on the Spark multi-label plate reader. Resulting data were captured as a ratio of RFU520/RFU485×1000. The max values were obtained from 0% inhibition in presence of 2% DMSO and the min. values were 100% inhibition in presence of 1 μM reference compound.

From patent publication US20240400564A1 (Syndax Pharmaceuticals, Inc, priority 2021, published 2024) come the findings set out here.

hERG, sequence (Q12809 whole entry, the tested form may be a part): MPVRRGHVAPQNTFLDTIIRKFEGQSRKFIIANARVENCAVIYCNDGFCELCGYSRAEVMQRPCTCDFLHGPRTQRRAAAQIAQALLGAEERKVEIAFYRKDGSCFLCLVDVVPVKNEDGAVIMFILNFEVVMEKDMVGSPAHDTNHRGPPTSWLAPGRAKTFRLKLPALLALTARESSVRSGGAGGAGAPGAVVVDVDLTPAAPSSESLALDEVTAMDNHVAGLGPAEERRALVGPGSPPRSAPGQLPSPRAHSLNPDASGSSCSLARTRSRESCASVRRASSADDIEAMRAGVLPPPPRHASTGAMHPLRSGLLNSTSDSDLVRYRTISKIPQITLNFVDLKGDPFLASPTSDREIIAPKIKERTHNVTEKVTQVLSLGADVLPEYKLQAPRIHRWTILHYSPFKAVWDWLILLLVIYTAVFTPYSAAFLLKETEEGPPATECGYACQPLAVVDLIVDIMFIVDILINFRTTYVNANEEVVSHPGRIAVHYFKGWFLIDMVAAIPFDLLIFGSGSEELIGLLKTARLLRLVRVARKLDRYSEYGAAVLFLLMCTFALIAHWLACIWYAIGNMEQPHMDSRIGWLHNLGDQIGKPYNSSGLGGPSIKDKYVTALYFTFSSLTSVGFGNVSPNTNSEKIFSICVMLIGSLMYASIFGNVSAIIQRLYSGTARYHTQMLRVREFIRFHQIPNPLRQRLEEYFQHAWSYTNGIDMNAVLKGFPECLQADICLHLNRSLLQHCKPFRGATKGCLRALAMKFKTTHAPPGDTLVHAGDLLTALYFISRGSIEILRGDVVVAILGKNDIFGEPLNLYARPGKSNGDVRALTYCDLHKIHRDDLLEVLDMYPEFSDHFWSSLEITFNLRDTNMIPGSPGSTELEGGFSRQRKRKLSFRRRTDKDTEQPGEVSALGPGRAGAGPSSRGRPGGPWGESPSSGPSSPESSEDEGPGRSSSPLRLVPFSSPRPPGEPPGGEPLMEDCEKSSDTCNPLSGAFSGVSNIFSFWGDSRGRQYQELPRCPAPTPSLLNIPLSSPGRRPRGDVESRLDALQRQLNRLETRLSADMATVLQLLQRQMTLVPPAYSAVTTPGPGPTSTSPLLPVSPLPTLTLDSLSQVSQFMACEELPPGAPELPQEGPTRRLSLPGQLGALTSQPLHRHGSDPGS
Experimental for hERG: The 35 mm culture dishes upon which cells were seeded at a density allowing single cells to be recorded were placed on the dish holder of the microscope and continuously perfused (at approximately 1 mL/min) with the bath solution described in section 4.6. All solutions applied to cells including the pipette solution were maintained at room temperature (19° C. to 30° C.). After formation of a Gigaohm seal between the patch electrodes and individual hERG stably transfected HEK 293 cells (pipette resistance range: 2.0 MS to 7.0 MS; seal resistance range: >1GΩ) the cell membrane across the pipette tip was ruptured to assure electrical access to the cell interior (whole-cell patch-configuration). In case the quality of the seal was poor, the process of seal formation was repeated with a different cell and a new pipette. As soon as a stable seal could be established, hERG outward tail currents were measured upon depolarization of the cell membrane to +20 mV for 2 s (activation of channels) from a holding potential of −80 mV and upon subsequent repolarization to −40 mV for 3 s. This voltage protocol (as shown below) was run at least 10 times at intervals of 10 s. If current density was judged to be too low for measurement, another cell was recorded.
During wash-in of the test item the voltage protocol indicated above was run continuously again at 10 s intervals until the steady-state level of block was reached.
The IC50 was determined by fitting the dose response curve with a 2-parameter logistic function (amax=100%).

For orientation: IC50 means the point on the concentration scale where inhibition reaches its midpoint. Read a low IC50 as greater potency. Turning to `CCN(C(=O)c1cc(F)ccc1Oc1cncnc1N1CC2(CCN(C[C@@H]3CC[C@@H](NS(=O)(=O)C4CC4)CO3)CC2)C1)C(C)C` [Example 4, 2-((4-(7-(((2S,5R)-5-(Cyclopropanesulfonamido)tetrahydro-2H-pyran-2-yl)methyl)-2,7-diazaspiro[3.5]nonan-2-yl)pyrimidin-5-yl)oxy)-N-ethyl-5-fluoro-N-isopropylbenzamide], the “hERG % Remaining” value on hERG (10 μM compound) and at hERG (30 μM compound) was “+++ (≥66%)” each time. The compound also registered an IC50 in series [1] of less than 100 nM.

Consider `CCN(C(=O)c1cc(F)ccc1Oc1cncnc1N1CC2(CCN(C[C@@H]3CC[C@@H](NS(=O)(=O)C4CCC4)CO3)CC2)C1)C(C)C` [Example 6, 2-((4-(7-(((2S,5R)-5-(Cyclobutanesulfonamido)tetrahydro-2H-pyran-2-yl)methyl)-2,7-diazaspiro[3.5]nonan-2-yl)pyrimidin-5-yl)oxy)-N-ethyl-5-fluoro-N-isopropylbenzamide], for which the “hERG % Remaining” value on hERG (10 μM compound) is “+++ (≥66%)”; on hERG (30 μM compound) it was “++ (233% and ≤66%)”. The IC50 in series [1] is less than 100 nM.

Regarding `CC(C)N(C(=O)c1cc(F)ccc1Oc1cncnc1N1CC2(CCN(C[C@@H]3CC[C@@H](NS(C)(=O)=O)CO3)CC2)C1)C(C)C` [Example 12, 5-Fluoro-N,N-diisopropyl-2-((4-(7-(((2S,5R)-5-(methylsulfonamido)tetrahydro-2H-pyran-2-yl)methyl)-2,7-diazaspiro[3.5]nonan-2-yl)pyrimidin-5-yl)oxy)benzamide], the “hERG % Remaining” value at hERG (1 μM compound) was “+++ (≥66%)”; at hERG (3 μM compound), “+++ (≥66%)”; at hERG (10 μM compound) it was “+++ (≥66%)”; on hERG (30 μM compound) it was “+++ (≥66%)”; at hERG (100 μM compound), “++ (233% and ≤66%)”. The same compound gave a concentration for half-maximal inhibition (IC50) in series [1] of less than 100 nM.

As to `CCS(=O)(=O)N[C@@H]1CC[C@@H](CN2CCC3(CC2)CN(c2ncncc2Oc2ccc(F)cc2C(=O)N(C(C)C)C(C)C)C3)OC1` [Example 13, 2-((4-(7-(((2S,5R)-5-(Ethylsulfonamido)tetrahydro-2H-pyran-2-yl)methyl)-2,7-diazaspiro[3.5]nonan-2-yl)pyrimidin-5-yl)oxy)-5-fluoro-N,N-diisopropylbenzamide], the “hERG % Remaining” value is “+++ (≥66%)” on hERG (1 μM compound); “+++ (≥66%)” on hERG (3 μM compound); “+++ (≥66%)” at hERG (10 μM compound); “++ (233% and ≤66%)” on hERG (30 μM compound); “++ (233% and ≤66%)” at hERG (100 μM compound). The IC50 in series [1] is less than 100 nM.

Consider `CC(C)N(C(=O)c1cc(F)ccc1Oc1cncnc1N1CC2(CCN(C[C@@H]3CC[C@@H](NS(=O)(=O)C(C)C)CO3)CC2)C1)C(C)C` [Example 14, 5-Fluoro-N,N-diisopropyl-2-((4-(7-(((2S,5R)-5-((1-methylethyl)sulfonamido)tetrahydro-2H-pyran-2-yl)methyl)-2,7-diazaspiro[3.5]nonan-2-yl)pyrimidin-5-yl)oxy)benzamide], for which the “hERG % Remaining” value on hERG (3 μM compound) is “+++ (≥66%)”; on hERG (10 μM compound), “+++ (≥66%)”; on hERG (30 μM compound), “++ (233% and ≤66%)”; on hERG (100 μM compound), “+ (<33%)”. In series [1], this compound showed a 50% inhibitory concentration (IC50) of less than 100 nM.

On to `CC(C)N(C(=O)c1cc(F)ccc1Oc1cncnc1N1CC2(CCN(C[C@@H]3CC[C@@H](NS(=O)(=O)C4CC4)CO3)CC2)C1)C(C)C` [Example 15, 2-((4-(7-(((2S,5R)-5-(Cyclopropanesulfonamido)tetrahydro-2H-pyran-2-yl)methyl)-2,7-diazaspiro[3.5]nonan-2-yl)pyrimidin-5-yl)oxy)-5-fluoro-N,N-diisopropylbenzamide], for which the “hERG % Remaining” value at hERG (3 μM compound) is “+++ (≥66%)”; on hERG (10 μM compound) it was “+++ (≥66%)”; at hERG (30 μM compound) it was “++ (233% and ≤66%)”; on hERG (100 μM compound), “+ (<33%)”. The compound also returned a half-inhibitory concentration (IC50) in series [1] of less than 100 nM.

Take `CC(C)N(C(=O)c1cc(F)ccc1Oc1cncnc1N1CC2(CCN(C[C@@H]3CC[C@@H](NS(=O)(=O)C4COC4)CO3)CC2)C1)C(C)C` [Example 16, 5-Fluoro-N,N-diisopropyl-2-((4-(7-(((2S,5R)-5-(oxetane-3-sulfonamido)tetrahydro-2H-pyran-2-yl)methyl)-2,7-diazaspiro[3.5]nonan-2-yl)pyrimidin-5-yl)oxy)benzamide]: the “hERG % Remaining” value on hERG (10 μM compound) and on hERG (30 μM compound) was “+++ (≥66%)” each time. In addition, the IC50 in series [1] was less than 100 nM.

Regarding `CCS(=O)(=O)N[C@@H]1CC[C@@H](CN2CCC3(CC2)CN(c2ncncc2Oc2ccc(F)cc2C(=O)N(C(C)C)C2CC2)C3)OC1` [Example 19, N-Cyclopropyl-2-((4-(7-(((2S,5R)-5-(ethylsulfonamido)tetrahydro-2H-pyran-2-yl)methyl)-2,7-diazaspiro[3.5]nonan-2-yl)pyrimidin-5-yl)oxy)-5-fluoro-N-isopropylbenzamide], the “hERG % Remaining” value was “+++ (≥66%)” on hERG (10 μM compound); “++ (233% and ≤66%)” on hERG (30 μM compound). The same compound yielded an IC50 in series [1] of less than 100 nM.

For the compound `CC(C)N(C(=O)c1cc(F)ccc1Oc1cncnc1N1CC2(CCN(C[C@@H]3CC[C@@H](NS(=O)(=O)C4CC4)CO3)CC2)C1)C1CC1` [Example 21, 2-((4-(7-(((2S,5R)-5-(Cyclopropanesulfonamido)tetrahydro-2H-pyran-2-yl)methyl)-2,7-diazaspiro[3.5]nonan-2-yl)pyrimidin-5-yl)oxy)-N-cyclopropyl-5-fluoro-N-isopropylbenzamide], the “hERG % Remaining” value was “++ (233% and ≤66%)” on hERG (10 μM compound); “+ (<33%)” on hERG (30 μM compound). In series [1], this compound registered an IC50 of less than 100 nM.

For `CCS(=O)(=O)N[C@@H]1CC[C@@H](CN2CCC3(CC2)CN(c2ncncc2Oc2ccc(F)cc2C(=O)N(C(C)C)[C@H]2CCOC2)C3)OC1` [Example 33, 2-((4-(7-(((2S,5R)-5-(Ethylsulfonamido)tetrahydro-2H-pyran-2-yl)methyl)-2,7-diazaspiro[3.5]nonan-2-yl)pyrimidin-5-yl)oxy)-5-fluoro-N-isopropyl-N-((S)-tetrahydrofuran-3-yl)benzamide], the “hERG % Remaining” value on hERG (10 μM compound) and at hERG (30 μM compound) was “+++ (≥66%)” throughout. The compound also gave an IC50 in series [1] of less than 100 nM.

For the compound `CCS(=O)(=O)N[C@@H]1CC[C@@H](CN2CCC3(CC2)CN(c2ncncc2Oc2ccc(F)cc2C(=O)N(CC(F)F)C(C)C)C3)OC1` [Example 34, N-(2,2-Difluoroethyl)-2-((4-(7-(((2S,5R)-5-(ethylsulfonamido)tetrahydro-2H-pyran-2-yl)methyl)-2,7-diazaspiro[3.5]nonan-2-yl)pyrimidin-5-yl)oxy)-5-fluoro-N-isopropylbenzamide], the “hERG % Remaining” value on hERG (1 μM compound) is “+++ (≥66%)”; at hERG (3 μM compound), “+++ (≥66%)”; at hERG (10 μM compound), “+++ (≥66%)”; on hERG (30 μM compound), “++ (233% and ≤66%)”; at hERG (100 μM compound), “+ (<33%)”. For the same compound, the IC50 in series [1] was less than 100 nM.

On to `CCS(=O)(=O)N[C@@H]1CC[C@@H](CN2CCC3(CC2)CN(c2ncncc2Oc2ccc(F)cc2C(=O)N(CCC#N)C(C)C)C3)OC1` [Example 43, N-(2-Cyanoethyl)-2-((4-(7-(((2S,5R)-5-(ethylsulfonamido)tetrahydro-2H-pyran-2-yl)methyl)-2,7-diazaspiro[3.5]nonan-2-yl)pyrimidin-5-yl)oxy)-5-fluoro-N-isopropylbenzamide], for which the “hERG % Remaining” value is “+++ (≥66%)” at hERG (10 μM compound); “++ (233% and ≤66%)” at hERG (30 μM compound). This compound also showed an IC50 in series [1] of less than 100 nM.
